Like-named read-outs stand apart in the source and are kept apart here.
Tests used:
KRAS G12C = KRAS G12C (Homo sapiens, UniProt P01116, G12C); assay: KRAS G12C cellular target engagement assay (SW1573 cells); format: cell-based; parameters: host or cells: SW1573; details: 17 hours, read-out: TE50 (the source's name)
Protocol: SW1573 cells (ATCC CRL-2170) were cultured in RPMI 1640 (Gibco A1049101), supplemented with 10% Heat-inactivated FBS (Gibco Cat. #A38400-01) and 1% Penicillin/Streptomycin (Gibco Cat. #15140-122) in an incubator set at 37° C. and 5% CO2. Cells were seeded at 100,000 cells/ml in 1 ml of complete media in a 24-well, tissue culture-treated plate (Falcon 353226) and incubated overnight. Cells were treated with increasing concentrations of compound and let incubate at 37C and 5% CO2 for 17 hours, after which media was aspirated and cells were lysed in 75 uL RIPA Lysis and Extraction Buffer (Thermo 89901) supplemented with 5 mM MgCl2, Protease and Phosphatase inhibitor cocktail (Thermo 1861281), and Universal Nuclease (Thermo 88700). Plates with RIPA were shaken at 4° C. at 600 rpm for 15 min. After shaking samples, they were collected and spun down at 21,000 g for 15 min at 4° C. Following centrifugation, ˜10 ug of lysate was added to Laemmli Sample Buffer (Bio-Rad 1610747) plus 10% beta-mercaptoethanol, boiled for 15 minutes at 65° C. and loaded onto 12% Mini-PROTEAN TGX™ Precast Protein Gels (Bio-Rad). Protein was transferred to a nitrocellulose membrane (Thermo LC2000) using the iBlot 2 Dry Blotting System (Thermo). After transfer, membranes were washed in 1× TBST (Bioland Scientific LLC TBST0103) 3× for 5 min. Following the wash, blocking buffer (Rockland MB-070) was added for 1 hour at room temperature. Primary antibodies against KRAS (LifeSpan Bio LS-C175665) and actin (Cell Signaling Technology 8457) were added overnight at 4° C. Membranes were then washed again 3× for 5 min in 1× TBST. Secondary antibodies (LI-COR 926-68072 and 926-68073) were added and shaken for 1 hr at room temperature. Membranes were then washed 3× for 5 min in 1×TBST and developed. Membranes were placed on an Odyssey imager (LI-COR).

GSPT1 = assay: Payload release assay (DC50 readout), GSPT1 degradation in the presence of recombinant target protein; format: cell-based; details: I-series compounds (GSPT1 readout inferred)
Protocol: Exemplary compounds were tested for ability to cause degradation of CCNK or GSPT1 in the presence of recombinant target protein.
HEK293 LgBiT/GSPT1 HiBiT CRISPR Knock-in cells (Promega) were cultured in DMEM (Gibco 11995), supplemented with 10% Heat-inactivated FBS (Gibco A38400-01) and 1% Penicillin/Streptomycin (Gibco 15140-122) and 200 Vg/ml Hygromycin B (Gibco 10-687-010) at 37° C. with 5% CO2 in a humidified tissue culture incubator. HEK293 LgBiT/CCNK HiBiT cells (in-house, described above) were cultured in DMEM (Gibco 11995), supplemented with 10% Heat-inactivated FBS (Gibco A38400-01) and 1% Penicillin/Streptomycin (Gibco 15140-122) 200 Vg/ml Hygromycin B (Gibco 10-687-010), and 1 Vg/ml Puromycin Dihydrochloride (Thermo A1113803) at 37° C. with 5% CO2 in a humidified tissue culture incubator. Cells were seeded (1000 cells/well for HEK293 LgBiT/GSPT1 HiBiT cells or 3000 cells/well for HEK293 LgBiT/CCNK HiBiT cells) 384-well, tissue culture-treated white plates (Perkin Elmer 6007680) in 10 μL media lacking selection for 18-24 hours. Plates were spun at 300 g for 30 seconds and stored in the incubator overnight. After 24 hours, a 5 μL aliquot of recombinant target protein (final concentration of either 5 μM KRAS amino acids 1-169, C51S, C80L, C118S, G12C or 3 μM EGFR amino acids 696-1022 or 3 μM EGFR amino acids 696-1022, T790M, L858R) was added to wells, followed immediately by a 5 μL aliquot of 4× compound-containing medium supplemented with Endurazine Substrate (Promega N2570) was added in each well, at a final top concentration of 10 μM test compound and 0.5× Endurazine, with 4-fold dilutions, using DMSO alone as a negative control. Plates were then spun at 300×g for 3 minutes again and cultured at 37° C. with 5% CO2. After 6 hours the plate was read on Envision MultiMode Plate Reader 2105 (Perkin Elmer) to measure luminescence signal. Data was normalized to DMSO treated cell wells. A four-parameter non-linear regression curve fit was applied to dose-response data in Prism to determine the half maximal growth inhibitory concentration (GI50) of each compound.

[1] = 0 μM recombinant KRAS G12C, read-out: DC50 at 0 μM KRAS G12C
[2] = 5 μM recombinant KRAS G12C, read-out: DC50 at 5 μM KRAS G12C

Sequence of KRAS G12C (P01116 1-188 isoform P01116-2 G12C): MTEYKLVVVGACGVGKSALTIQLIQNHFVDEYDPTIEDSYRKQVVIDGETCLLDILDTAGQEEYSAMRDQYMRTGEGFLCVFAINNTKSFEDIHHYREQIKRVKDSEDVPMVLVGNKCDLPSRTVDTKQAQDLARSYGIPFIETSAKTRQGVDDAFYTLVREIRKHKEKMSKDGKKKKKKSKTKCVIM

Compound | EC50 (KRAS G12C) [nM] | DC50 (GSPT1; [1]) [nM] | DC50 (GSPT1; [2]) [nM]
C=C(COc1cc(Cl)cc(NC(=O)NCc2ccc3c(c2)CN(C2CCC(=O)NC2=O)C3=O)c1)C(=O)N1CC2(CC(n3nc(-c4ccc5c(cnn5C)c4)c(-c4c(Cl)c(C)cc5[nH]ncc45)c3C)C2)C1 (stereo not drawn) [Compound I-56] | 5000 to 10000 | < 250 | < 250
C=C(CN(C)c1cccc(NC(=O)NCc2ccc3c(c2)CN(C2CCC(=O)NC2=O)C3=O)c1)C(=O)N1CCN(c2nc(OC[C@@H]3CCCN3C)nc3c2CCN(c2cccc4cccc(Cl)c24)C3)C[C@@H]1CC#N (stereo partly drawn) [Compound I-58] | 5000 to 10000 | > 10000 | 5000 to 10000
C=C(COc1cc(F)c(F)cc1NC(=O)NCc1ccc2c(c1)CN(C1CCC(=O)NC1=O)C2=O)C(=O)N1CCN(c2nc(OC[C@@H]3CCCN3C)nc3c2CCN(c2cccc4cccc(Cl)c24)C3)C[C@@H]1CC#N (stereo partly drawn) [Compound I-62] | 250 to 5000 | 250 to 5000 | < 250
C=C(COc1ccccc1CNC(=O)NCc1ccc2c(c1)CN(C1CCC(=O)NC1=O)C2=O)C(=O)N1CCN(c2nc(OC[C@@H]3CCCN3C)nc3c2CCN(c2cccc4cccc(Cl)c24)C3)C[C@@H]1CC#N (stereo partly drawn) [Compound I-63] | 250 to 5000 | > 10000 | > 10000
C=C(COc1cc(Cl)cc(NC(=O)NCc2cc3c(cc2F)C(=O)N(C2CCC(=O)NC2=O)C3)c1)C(=O)N1CCN(c2nc(OC[C@@H]3CCCN3C)nc3c2CCN(c2cccc4cccc(Cl)c24)C3)C[C@@H]1CC#N (stereo partly drawn) [Compound I-64] | 250 to 5000 | 250 to 5000 | < 250
C=C(COc1cc(Cl)c(OC)cc1NC(=O)NCc1ccc2c(c1)CN(C1CCC(=O)NC1=O)C2=O)C(=O)N1CC2(CC(n3nc(-c4ccc5c(cnn5C)c4)c(-c4c(Cl)c(C)cc5[nH]ncc45)c3C)C2)C1 (stereo not drawn) [Compound I-66] | 250 to 5000 | < 250 | < 250
C=C(COc1cc(NC(=O)NCc2ccc3c(c2)CN(C2CCC(=O)NC2=O)C3=O)cc(OC)c1)C(=O)N1CC2(CC(n3nc(-c4ccc5c(cnn5C)c4)c(-c4c(Cl)c(C)cc5[nH]ncc45)c3C)C2)C1 (stereo not drawn) [Compound I-67] | 5000 to 10000 | 250 to 5000 | 250 to 5000
C=C(COc1cc(NC(=O)NCc2ccc3c(c2F)CN(C2CCC(=O)NC2=O)C3=O)cc(C(F)(F)F)c1)C(=O)N1CC2(CC(n3nc(-c4ccc5c(cnn5C)c4)c(-c4c(Cl)c(C)cc5[nH]ncc45)c3C)C2)C1 (stereo not drawn) [Compound I-68] | 250 to 5000 | > 10000 | > 10000
C=C(COC(=O)c1c(C)csc1NC(=O)NCc1ccc2c(c1)CN(C1CCC(=O)NC1=O)C2=O)C(=O)N1CCN(c2nc(OC[C@@H]3CCCN3C)nc3c2CCN(c2cccc4cccc(Cl)c24)C3)C[C@@H]1CC#N (stereo partly drawn) [Compound I-72, 2-[(2S)-4-[7-(8-chloro-1-naphthyl)-2-[[(2S)-1-methylpyrrolidin-2-yl]methoxy]-6,8-dihydro-5H-pyrido[3,4-d]pyrimidin-4-yl]-2-(cyanomethyl)piperazine-1-carbonyl]allyl 2-[[2-(2,6-dioxo-3-piperidyl)-1-oxo-isoindolin-5-yl]methylcarbamoylamino]-4-methyl-thiophene-3-carboxylate] | 5000 to 10000 | > 10000 | 250 to 5000
C=C(COC(=O)NCc1cc(Cl)cc(NC(=O)NCc2ccc3c(c2)CN(C2CCC(=O)NC2=O)C3=O)c1)C(=O)N1CCN(c2nc(OC[C@@H]3CCCN3C)nc3c2CCN(c2cccc4cccc(Cl)c24)C3)C[C@@H]1CC#N (stereo partly drawn) [Compound I-73] | < 250 | < 250 | < 250
C=C(COC(=O)NCCCc1cc(Cl)cc(NC(=O)NCc2ccc3c(c2)CN(C2CCC(=O)NC2=O)C3=O)c1)C(=O)N1CCN(c2nc(OC[C@@H]3CCCN3C)nc3c2CCN(c2cccc4cccc(Cl)c24)C3)C[C@@H]1CC#N (stereo partly drawn) [Compound I-74] | < 250 | 250 to 5000 | < 250
C=C(COc1cc(NC(=O)NCc2ccc3c(c2)CN(C2CCC(=O)NC2=O)C3=O)cc(F)c1F)C(=O)N1CCN(c2nc(OC[C@@H]3CCCN3C)nc3c2CCN(c2cccc4cccc(Cl)c24)C3)C[C@@H]1CC#N (stereo partly drawn) [Compound I-75] | 5000 to 10000 | > 10000 | > 10000
C=C(COc1ccc(Cl)cc1NC(=O)NCc1ccc2c(c1)CN(C1CCC(=O)NC1=O)C2=O)C(=O)N1CC2(CC(n3nc(-c4ccc5c(cnn5C)c4)c(-c4c(Cl)c(C)cc5[nH]ncc45)c3C)C2)C1 (stereo not drawn) [Compound I-76] | 250 to 5000 | < 250 | < 250
C=C(COc1cc(NC(=O)NCc2ccc3c(c2)CN(C2CCC(=O)NC2=O)C3=O)cc(C(F)(F)F)c1)C(=O)N1CC2(CC(n3nc(-c4ccc5c(cnn5C)c4)c(-c4c(Cl)c(C)cc5[nH]ncc45)c3C)C2)C1 (stereo not drawn) [Compound I-77] | 250 to 5000 | < 250 | < 250
C=C(COC(=O)NCCc1ccc(Cl)cc1NC(=O)NCc1ccc2c(c1)CN(C1CCC(=O)NC1=O)C2=O)C(=O)N1CCN(c2nc(OC[C@@H]3CCCN3C)nc3c2CCN(c2cccc4cccc(Cl)c24)C3)C[C@@H]1CC#N (stereo partly drawn) [Compound I-78] | < 250 | > 10000 | > 10000
C=C(COC(=O)NCCCc1ccc(Cl)cc1NC(=O)NCc1ccc2c(c1)CN(C1CCC(=O)NC1=O)C2=O)C(=O)N1CCN(c2nc(OC[C@@H]3CCCN3C)nc3c2CCN(c2cccc4cccc(Cl)c24)C3)C[C@@H]1CC#N (stereo partly drawn) [Compound I-79] | < 250 | 250 to 5000 | > 10000
C=C(COc1ccccc1NC(=O)NCc1ccc2c(c1)CN(C1CCC(=O)NC1=O)C2=O)C(=O)N1CCN(c2nc(OC[C@H]3CCCN3C)nc3c2CCN(c2cccc4cccc(Cl)c24)C3)C[C@H]1CC#N (stereo partly drawn) [Compound I-80] | < 250 | 250 to 5000 | < 250
C=C(COc1cc(Cl)cc(NC(=O)NCc2ccc3c(c2)CN(C2CCC(=O)NC2=O)C3=O)c1F)C(=O)N1CCN(c2nc(OC[C@@H]3CCCN3C)nc3c2CCN(c2cccc4cccc(Cl)c24)C3)C[C@@H]1CC#N (stereo partly drawn) [Compound I-84] | > 10000 | < 250 | < 250
C=C(COc1cc(NC(=O)NCc2ccc3c(c2F)CN(C2CCC(=O)NC2=O)C3=O)cc(C(F)(F)F)c1)C(=O)N1CCN(c2nc(OC[C@@H]3CCCN3C)nc3c2CCN(c2cccc4cccc(Cl)c24)C3)C[C@@H]1CC#N (stereo partly drawn) [Compound I-85] | < 250 | 250 to 5000 | < 250
C=C(COc1c(Cl)cccc1NC(=O)NCc1ccc2c(c1)CN(C1CCC(=O)NC1=O)C2=O)C(=O)N1CCN(c2nc(OC[C@@H]3CCCN3C)nc3c2CCN(c2cccc4cccc(Cl)c24)C3)C[C@@H]1CC#N (stereo partly drawn) [Compound I-86] | 250 to 5000 | < 250 | < 250
C=C(COc1cc(C(F)(F)F)c(Cl)cc1NC(=O)NCc1ccc2c(c1)CN(C1CCC(=O)NC1=O)C2=O)C(=O)N1CCN(c2nc(OC[C@@H]3CCCN3C)nc3c2CCN(c2cccc4cccc(Cl)c24)C3)C[C@@H]1CC#N (stereo partly drawn) [Compound I-88] | < 250 | < 250 | < 250

From patent US20240408093A1, “HETEROBIFUNCTIONAL COMPOUNDS AND THEIR USE IN TREATING DISEASE” (HALDA THERAPEUTICS OPCO, INC., priority 2022, published 2024)
